Laboratory results from US20090209937A1 (priority 2007, published 2009).
Entries after “also recorded” stand apart in the source; their conditions may differ.

Experiments:
[1] = tested on: fully amygdala kindled rats; conditions: rat, in vivo
fully-kindled rats = conditions: rat, in vivo
[2] = tested on: amygdala and surrounding brain structures; conditions: rat, in vivo
Non-kindled rats = conditions: rat, in vivo
[3] = tested on: audiogenic seizure susceptible mice; conditions: mouse, in vivo; cited from earlier work

In the case of `NC(=O)N1c2ccccc2C=Cc2ccccc21` [carbamazepine], the “increase in mean AD threshold and decreases in mean seizure stage and mean behavioral seizure duration vs vehicle (p value)” value [1] is reported as less than 0.05, the “kindling measures vs vehicle at later time points” value [1] is reported as “no differences” and the “time course of activity after CED infusion (in words)” value [1] is reported as “apparent at 20 min but not at 24 h; also recorded: active at 20 min but not at 24 h”. The “adverse neurological or behavioral effects” value (fully-kindled rats) was “not associated with any observable adverse neurological or behavioral effects”.

For ω-conotoxin GVIA [ω-CTX-G], the “tissue damage after repeated CED infusions (cresyl violet and silver staining)” value [2] was “minimal damage”, the “behavioral effects of the toxin infusion (in words)” value (Non-kindled rats) was “no or only mild behavioral effects” and the body weight gain (Non-kindled rats) was 3.0±1.8%. For the same compound, the body weight loss (Non-kindled rats) was 10.3±0.9%, the “cumulative dose corresponding to the threshold for locomotor arrest” value (Non-kindled rats) was 0.013 ± 0.001 nmol and the “cumulative dose corresponding to the threshold for whole body tremors” value (Non-kindled rats) was 0.027 ± 0.002 nmol. The “onset of locomotor activity arrest following the infusion” value (Non-kindled rats) was 5.0 ± 0.4 min, the “onset of rhythmic whole body tremors following the infusion” value (Non-kindled rats) was 10.8 ± 0.9 min and the persistence of tremors (Non-kindled rats) was 24 h. For the same compound, the “rats exhibiting locomotor activity arrest followed by whole body tremors” value (Non-kindled rats) was “All six”, the “time of maximum increase in AD threshold / maximum protective effect after CED infusion” value [1] was 48 h and the protection against seizures [3] was “protected against seizures”. For the same compound, the body weight increase (fully-kindled rats) was 0.1±2.1%, the resolution of tremor (fully-kindled rats) was “resolved by the third day after the infusion” and the “tremor after infusions of lower doses” value (fully-kindled rats) was “No tremor was observed”.
